Experiments:
[1] = Encapsulation efficiency of RNA in nanoparticle compositions (RIBOGREEN assay); type: physicochemical
How it was run: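 Lipid nanoparticles (ionisable lipid:DSPC:cholesterol:PEG-DMG 50:10:38.5:1.5 mol %) carrying N1-methylpseudouridine luciferase or hEPO mRNA diluted to about 5 μg/mL in TE, pH 7.5, with or without 2% Triton X-100, 15 min at 37° C. RiboGreen fluorescence (ex ~480, em ~520 nm) blank-subtracted; free RNA = intact/disrupted signal.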

[2] = Lipid clearance: mouse liver tissue level and % dose remaining in liver after intravenous administration; type: in vivo; settings: mouse, liver, 0.5 mg/kg
[3] = Particle size and polydispersity index of nanoparticle compositions (Zetasizer Nano ZS); type: physicochemical
How it was run: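 Formulations of ionizable lipid, DSPC, cholesterol and PEG-DMG (50:10:38.5:1.5 mol %) carrying Luc or hEPO mRNA with all uridines as N1-methyl pseudouridine. Dynamic light scattering in 1×PBS gave particle size and polydispersity; zeta potential read in 15 mM PBS.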

luciferase (Luc) mRNA [4] = test: Luciferase expression (whole body bioluminescence) after intravenous administration to mice; type: in vivo; settings: for Novel lipid/MC3 ratio, i.v.: Table 3G, 6 hr. timepoint, relative to MC3; for Novel lipid/MC3 ratio, i.v. / Novel lipid/MC3 expression ratio, i.v.: intravenous, luciferase; for Novel lipid/MC3 expression ratio, i.v.: 6 hr. time point, relative to MC3 formulation
How it was run: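 Luc mRNA nanoparticles were given IV at 0.5 mg/kg to groups of six mice, and whole-body bioluminescent flux was imaged 3, 6 and 24 h post-dose. Flux AUC for each lipid formulation was reported as a ratio to the MC3 reference formulation.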

IL-6, IP-10 = test: Cytokine induction (IL-6, IP-10) in mice 6 hours after intravenous administration; type: in vivo; design: unit not given here; settings: intravenous 0.5 mpk
Description: The introduction of foreign material into a mammalian body induces an innate immune response that promotes cytokine production. Such immune responses to, for example, nanoparticle compositions including therapeutic and/or prophylactics, are undesirable. The induction of certain cytokines is thus measured to evaluate the […] of nanoparticle compositions. The concentrations of various cytokines in mice upon intravenous administration of nanoparticle compositions presented in Table 1A at a dosage of 0.5 mpk was measured at 6 hours. The standard MC3 formulation and a PBS control were also tested. As is evident in Table 7, IL-6 induction was highest for compositions including Compounds 1, 3, 9, 19, and 26, while IP-10 induction was highest for compositions including Compounds 3, 4, 7, 20, and 26. IL-6 induction was lowest for compositions including Compounds 4, 11, 12, and 28. IP-10 induction was lowest for compositions including Compounds 10, 11, 12, 13, 15, 17, and 18.

modified luciferase = test: Luciferase expression in liver, lung, spleen and femur 6 hours after intravenous administration to mice; type: in vivo; settings: 6 hours after intravenous 0.5 mpk, mice
How it was run: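 Mice (n=3) got a single 0.5 mpk IV dose of each nanoparticle composition, with MC3 and PBS controls alongside. Organ luminescence flux was read 6 h post-dose.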

luciferase (Luc) mRNA [5] = test: Luciferase expression after intramuscular administration to mice; type: in vivo; settings: intramuscular, luciferase, 6 hr. time point, relative to MC3 formulation
Description: The numbers 1-7 in this figure correspond to MC3, Compounds 168-170, and 173-175 respectively.
FIGS. 18A and 18B show the results of luciferase expression measured upon intramuscular administration of various nanoparticle compositions to CD-1 mice at 0.01 mpk. FIG. 18A is a bar graph showing total flux at 6 hr after administration. The numbers above each bar indicate the expression ratio relative to MC3. […] Numbers 1-11 in the Figures refer to compositions containing the following: 1: MC3, 2: Compound 143, 3: Compound 49; 4: Compound 113; 5: Compound 61; 6: Compound 72; 7: Compound 75; 8: Compound 71; 9: Compound 128; 10: Compound 156; 11: Compound 157.
The numbers 1-9 in this figure correspond to MC3, and Compounds 178, 181, 182, 218, 198, 200, 233, and 239, respectively.
The total flux (measured by area under the curve, AUC) induced by administration of a formulation including a given lipid relative to that induced by administration of a formulation including MC3 was also measured for several lipids.
Sample formulations including modified luciferase (Luc) mRNA prepared and administered intramuscularly and the resulting expression and immunogenicity were evaluated simultaneously. Formulations including compounds according to Formula (I), (IA), (IB), (II), (IIa), (IIb), (IIc), (IId), (IIe), (IIf), (IIg), or (III) were prepared and administered at dose of and 0.01 mpk.

[6] = Table 1A, lipid:DSPC:cholesterol:PEG-DMG 50:10:38.5:1.5 mol %
[7] = Table 1B, formulated with hEPO mRNA
[8] = Table 1D, compositions for subcutaneous administration, # formulated with hEPO mRNA

| EE [1, 6] | concentration at 6 h [2] | concentration at 24 h [2] | Size [3, 6] | SMILES | other results |
| --- | --- | --- | --- | --- | --- |
| 85.0% | 47000 ng/g | 32800 ng/g | 100.5 nm | CCCCCCCCCC(C)(O)CCCCCCCCN(CCO)CCCCCCCC(=O)OC(CCCCCCCC)CCCCCCCC (stereo not shown) [Compound 171, Heptadecan-9-yl 8-((9-hydroxy-9-methyloctadecyl)(2-hydroxyethyl)amino)octanoate] | – |
| 94.2% | 260 ng/g | 0 ng/g | 77.2 nm | CCCCCCCCC(CCCCCCCC)OC(=O)CCCCCCCN(CCO)CCCCCCCC(=O)OCC(C)CCCCCCC (stereo not shown) [Compound 184, Heptadecan-9-yl 8-((2-hydroxyethyl)(8-((2-methylnonyl)oxy)-8-oxooctyl)amino)octanoate] | EE [1, 7]: 96.5%; Size [3, 7]: 85.8 nm |
| 94.3% | 187 ng/g | 0 ng/g | 67.6 nm | CCCCCCCCC(CCCCCCCC)OC(=O)CCCCCCCN(CCO)C(C)CCCCCCCCOC(=O)CCCCCCC (stereo not shown) [Compound 161, Heptadecan-9-yl 8-((2-hydroxyethyl)(10-(octanoyloxy)decan-2-yl)amino)octanoate] | – |
| 87.2% | 42.8 ng/g | 0 ng/g | 92.2 nm | CCCCCCCOC(=O)CCCCCCCCCN(CCO)CCCCCCCCCC(=O)OC(CCCCCC)CCCCCC [Compound 186, Heptyl 10-((2-hydroxyethyl)(10-oxo-10-(tridecan-7-yloxy)decyl)amino)decanoate] | – |
| 95.4% | 16000 ng/g | 2990 ng/g | 77.3 nm | CCCCCCCCC(CCCCCCCC)OC(=O)CCCCCCCN(CCO)CCCCCCCC(=O)O[C@H](C)CCCCCCCC [Compound 172, (R)-Decan-2-yl 8-((8-(heptadecan-9-yloxy)-8-oxooctyl)(2-hydroxyethyl)amino)octanoate] | – |
| 98.3% | 31200 ng/g | 27000 ng/g | 69.6 nm | CCCCCCCCCCCOC(=O)CCCCCN(CCO)CCCCCC(=O)OC(CCCCCCCCCC)CCCCCCCCCC [Compound 185, Henicosan-11-yl 6-((2-hydroxyethyl)(6-oxo-6-(undecyloxy)hexyl)amino)hexanoate] | – |
| 92.9% | 26900 ng/g | 11700 ng/g | 84.6 nm | CCCCCCCCCC(=O)OC(C)CCCCCCN(CCO)CCCCCCCOC(=O)C(CCCCCCCC)CCCCCCCC (stereo not shown) [Compound 165, 7-((7-(Decanoyloxy)octyl)(2-hydroxyethyl)amino)heptyl 2-octyldecanoate] | Novel lipid/MC3 ratio, i.v. (luciferase (Luc) mRNA [4]): 2.12; Size [3, 8]: 74.3 nm |
| 91.2% | 36000 ng/g | 24200 ng/g | 84.5 nm | CCCCCCCCCOC(=O)C(C)CCCCCCN(CCO)CCCCCCCC(=O)OC(CCCCCCCC)CCCCCCCC (stereo not shown) [Compound 164, Nonyl 8-((8-(heptadecan-9-yloxy)-8-oxooctyl)(2-hydroxyethyl)amino)-2-methyloctanoate] | Novel lipid/MC3 ratio, i.v. (luciferase (Luc) mRNA [4]): 1.24; Size [3, 8]: 75.7 nm |
| 94.0% | 51.5 ng/g | 0 ng/g | 89.0 nm | CCCCCCCCCOC(=O)CCCCCCCN(CCO)CCCCCCCC(=O)OC(CCC1CC1CCCC)CCC1CC1CCCC (stereo not shown) [Compound 160, 1,5-Bis(2-butylcyclopropyl)pentan-3-yl 8-((2-hydroxyethyl)(8-(nonyloxy)-8-oxooctyl)amino)octanoate] | – |
| 86.10% | – | – | 118.9 nm | CCCCCCCCCN(CCCO)CCCCCCCC(=O)OC(CCCCCCCC)CCCCCCCC [Compound 7, Heptadecan-9-yl 8-((3-hydroxypropyl)(nonyl)amino)octanoate] | Cytokine induction, IL-6 (IL-6, IP-10): 116.35; Cytokine induction, IP-10 (IL-6, IP-10): 4959.16; Novel lipid/MC3 expression ratio, i.v. (luciferase (Luc) mRNA [4]): 0.88; Total Flux, Liver (modified luciferase): 2.49E+09; Total Flux, Lung (modified luciferase): 3.95E+07; Total Flux, Spleen (modified luciferase): 4.83E+08; Novel lipid/MC3 expression ratio, i.m. Luc (luciferase (Luc) mRNA [5]): 1.10 |
| 32.3% | 69.9 ng/g | 0 ng/g | 245.3 nm | CCCCCCCCCOC(=O)CCCCCCCN(CCO)CCCCCCCC(=O)OC(COCCCCCC)COCCCCCC [Compound 183, 1,3-Bis(hexyloxy)propan-2-yl 8-((2-hydroxyethyl)(8-(nonyloxy)-8-oxooctyl)amino)octanoate] | – |
| 94.1% | 261 ng/g | 0 ng/g | 72.7 nm | CCCCCCCCC(CCCCCCCC)C(=O)OCCCCCCCN(CCO)C(C)CCCCCCCCOC(=O)CCCCCCC (stereo not shown) [Compound 162, 7-((2-Hydroxyethyl)(10-(octanoyloxy)decan-2-yl)amino)heptyl 2-octyldecanoate] | – |
| 94.4% | 24800 ng/g | 13600 ng/g | – | CCCCCCCCCC(=O)OC(C)CCCCCCN(CCO)CCCCCCCC(=O)OC(CCCCCCCC)CCCCCCCC (stereo not shown) [Compound 98, 8-((8-(Heptadecan-9-yloxy)-8-oxooctyl)(2-hydroxyethyl)amino)octan-2-yl decanoate] | Novel lipid/MC3 ratio, i.v. (luciferase (Luc) mRNA [4]): 3.16; Size [3, 8]: 74.8 nm |
| 92.68% | – | – | 104.5 nm | CCCCCCCCCOC(=O)CCCCCCCN(CCO)CCCCCCCCCC(=O)OC(CCCCCCCC)CCCCCCCC [Compound 23, Heptadecan-9-yl 10-((2-hydroxyethyl)(8-(nonyloxy)-8-oxooctyl)amino) decanoate] | Cytokine induction, IL-6 (IL-6, IP-10): 94.00; Cytokine induction, IP-10 (IL-6, IP-10): 1015.95; Novel lipid/MC3 expression ratio, i.v. (luciferase (Luc) mRNA [4]): 0.04; Size ([3]; Table 1E, compositions for subcutaneous administration): 70.5 nm; Novel lipid/MC3 expression ratio, i.m. Luc (luciferase (Luc) mRNA [5]): 0.30 |
| 97.54% | – | – | 71 nm | CCCCCCCCC(CCCCCCCC)OC(=O)CCCCCCCN(CCO)CCCC(=O)OC(CCCCC)CCCCCCCC (stereo not shown) [Compound 71, Heptadecan-9-yl 8-((2-hydroxyethyl)(4-oxo-4-(tetradecan-6-yloxy)butyl)amino)octanoate] | Novel lipid/MC3 expression ratio, i.v. (luciferase (Luc) mRNA [4]): 0.42; Total Flux, Liver (modified luciferase): 7.93E+08; Total Flux, Lung (modified luciferase): 4.86E+06; Total Flux, Spleen (modified luciferase): 8.04E+06; Novel lipid/MC3 expression ratio, i.m. Luc (luciferase (Luc) mRNA [5]): 0.08 |
| 93.2% | 32100 ng/g | 17900 ng/g | 88.3 nm | CCCCCCCCCOC(=O)C(C)CCCCCCN(CCO)CCCCCCCOC(=O)C(CCCCCCCC)CCCCCCCC (stereo not shown) [Compound 163, 7-((2-Hydroxyethyl)(7-methyl-8-(nonyloxy)-8-oxooctyl)amino)heptyl 2-octyldecanoate] | Novel lipid/MC3 ratio, i.v. (luciferase (Luc) mRNA [4]): 3.45; Size [3, 8]: 78.0 nm |
| 96.04% | – | – | 61 nm | CCCCCCCCCOC(=O)CCCCCCCN(CCCCCCCC(=O)OC(CCCCCCCC)CCCCCCCC)C(C)CO (stereo not shown) [Compound 157, Heptadecan-9-yl 8-((1-hydroxypropan-2-yl)(8-(nonyloxy)-8-oxooctyl)amino)octanoate] | AUC (luciferase (Luc) mRNA [4]; intravenous administration (Table 3D)): 2.481E+011 p/s*h; Total Flux, Liver (modified luciferase): 2.27E+09; Total Flux, Lung (modified luciferase): 6.70E+06; Total Flux, Spleen (modified luciferase): 5.15E+07; Novel lipid/MC3 expression ratio, i.m. Luc (luciferase (Luc) mRNA [5]): 0.79 |
